The source of these data is US8247552B2, “Analogs of dehydrophenylahistins and their therapeutic use” (Nereus Pharmaceuticals, Inc., priority 2002, dated 2012).

≈ marks a conversion by molar mass, not a printed value. Read-outs that look alike come from different tables or passages of the source.

For data set [1], the system named is Trichophyton mentagrophytes. Put plainly: Antifungal susceptibility testing (NCCLS M38-A), MIC/MFC. The format is cell-based. The method, then:
Specifically, disclosed compounds were evaluated alongside commercially available microtubulin inhibitors as well as recognized antifungal agents. […].
(§1) Microorganisms against which these compounds were tested included: Candida albicans, Candida glabrata, Aspergillus fumigatus, Trichophyton rubrum, Trichophyton mentagrophytes, Epidermophyton floccosum. With the exception of Candida glabrata (one isolate), two isolates of each species were tested.
Drug concentrations were 0.03-16 μg/ml for the investigational compounds, 0.015-8 μg/ml for itraconazole and griseofulvin.
The minimum lethal concentration (MLC) was determined by plating […] from the MIC concentration and each concentration above the MIC. […] When a MIC was obtained, a minimum fungicidal concentration (MFC) was determined to assess the fungistatic/fungicidal nature of the compound. […] The compound is scored as fungistatic if the cells are able to resume growth and fungicidal if no regrowth is possible because the compound had killed the organisms.

For another data set, the system named is Trichophyton rubrum. Described as above. To be noted: for antifungal potency compared with griseofulvin: dermatophyte isolates. The data set is classed as cell-based. The method, then:
(§2) Specifically, disclosed compounds were evaluated alongside commercially available microtubulin inhibitors as well as recognized antifungal agents.
as §1
(§3) The minimum lethal concentration (MLC) was determined by plating […] from the MIC concentration and each concentration above the MIC. […] When a MIC was obtained, a minimum fungicidal concentration (MFC) was determined to assess the fungistatic/fungicidal nature of the compound.

For data set [2], the system named is MCF7 cells (GFP-alpha-tubulin). Put plainly: Microtubule dynamic instability in living MCF7 cells (time-lapse microscopy). The data set is classed as cell-based, human.
A further data set deals with HuVEC cells. In words: Microtubule (tubulin) depolymerization, α-tubulin staining. The following applies: 2 μM, thirty minutes exposure.
For another data set, the system named is HT-29 human colon cells. Put plainly: Tumor cytotoxicity / cell growth inhibition assay, resazurin fluorescence, 48 h. The format is cell-based. The following applies: for EC50: Homo sapiens.
For data set [3], the system named is MES-SA/Dx5 (Taxol resistant) human uterine sarcoma. Put plainly: Cytotoxicity / growth inhibition in multidrug resistant uterine sarcoma cells. The format is cell-based. The method, then: 1) Human Uterine Sarcoma Tumor Cell Line Pair: MES-SA (Taxol Sensitive) and MES-SA/Dx5 (Taxol Resistant).
HL-60 and HL-60/MX2 cells were both seeded at 5×10^4 cells/well in 90 μl complete media into 96 well plates on the day of compound addition. […] Ten μl volumes of the 10× serial dilutions were added to the test wells in triplicate and the plates returned to the incubator for 48 hours.
Resazurin dye in medium without cells was used to determine the background, which was subtracted from the data for all experimental wells.
The multidrug resistant MES-SA/Dx5 tumor cell line was derived from the human uterine sarcoma MES-SA tumor cell line and expresses elevated P-Glycoprotein (P-gp), an ATP dependent efflux pump. […] Paclitaxel, a known substrate of the P-gp pump was included as a control.

Another data set deals with Candida albicans. In words: Antifungal susceptibility testing (NCCLS M38-A), MIC/MFC. The format is cell-based. To be noted: Table 23. As to the method: as §2, §1, §3
Another data set deals with Candida glabrata. Described as above. To be noted: Table 23. The format is cell-based. The method, then:
as §2, §1, §3

The subject of a further data set is MCF-7 human breast tumor. Put plainly: MCF-7 Human Breast Tumor Xenograft Model. The data set is classed as in vivo, mice. To be noted: combination with taxotere. The method, then:
Animals used were (exceptions are indicated for individual studies): female nude mice (nu/nu) between 5 and 6 weeks of age (˜20 g, Harlan); group size was 9-10 mice per group unless otherwise indicated.
Female nude mice (˜20 g) were implanted s.c. with 21-day release estrogen (0.25 mg) pellets 24 hours prior to the s.c. implantation with MCF-7 tumor fragments (harvested from s.c. tumors in nude mice hosts). The study then proceeded as described for the HT-29 model, using taxotere as the standard chemotherapy agent.
In this model unless otherwise noted for the individual study, the novel compounds were injected via the intraperitoneal route daily on Days 1-5, inclusive (qdx5); taxotere was administered intravenously on Days 1, 3 and 5 (qodx3).
The doses of the compounds were administered on Days 1, 2, 3, 4, and 7; Taxotere was administered on Days 1, 3 and 7.

Data set [4] deals with Jurkat cells (human T cell leukemia line). In words: DNA fragmentation (DNA laddering) by gel electrophoresis. The format is cell-based. An excerpt: A late stage characteristic of apoptosis is internucleosomal DNA cleavage that results in a distinctive ladder pattern that can be visualized by gel electrophoresis.
Where [5] appears, read: Table 28, 25% of the maximal mitotic block.
The mark [6] stands for this setting: Table 29, 50% of the maximal mitotic block.

Description for HuVEC cells: The plates were returned to the incubator for 2 days.
20 mM stock solutions of compounds were prepared in 100% DMSO and stored at −80° C. 400× concentrated dilutions of the compounds were prepared in 100% DMSO. 5 μl volumes of the dilutions were added to individual wells resulting in a final concentration of 20 nM. […] The plates were returned to the incubator for 30 minutes.
The cells were rinsed in dPBS before fixation in 10% (v/v) neutral buffered formalin for 10 minutes at room temperature. Following fixation, α-tubulin was visualized by indirect immunofluorescence. Specifically, the cells were permeabilized in 0.2% (v/v) triton X-100/dPBS for 10 minutes. The cells were washed prior to transferring the coverslips to a humidified chamber, the coverslips were blocked for two hours in antibody buffer [2% (w/v) BSA/0.1% (v/v) Tween 20/dPBS]. The coverslips were incubated with 50 μl of 0.1 μg/ml mouse α-tubulin (Molecular Probes) in antibody buffer for 1 hour before washing and incubation with 50 μl of 1 μg/ml goat anti-mouse FITC (Jackson ImmunoResearch Laboratories) for one hour in the dark. Finally, the cells were washed and treated with 2 μg/ml DAPI (Molecular Probes) for 10 minutes before rinsing in H2O and mounting with Vectashield (Vector Labs) mounting media. The cells were imaged using a 60× oil immersion objective on an upright microscope (Olympus BX51). The images were digitally captured using a CCD camera and Magnafire 2.0 software (Olympus). Post image processing was performed in Photoshop Elements 2.0 (Adobe) and in Microsoft Powerpoint.
Human umbilical vein endothelial cells (HuVECs; Cambrex CC2519A) were maintained at subconfluent densities in EGM-2 (Cambrex) media. […] The plates were returned to the incubator for 2 days.
Stock (20 mM) solutions of the test compounds were prepared in 100% DMSO. 400× concentrated dilutions of the compounds were prepared in 100% DMSO. 5 μl volumes of the dilutions were added to individual wells resulting in a final concentration of 200 nM. […] The plates were returned to the incubator for 30 minutes.
The cells were rinsed in dPBS before fixation in 10% (v/v) neutral buffered formalin for 10 minutes at room temperature. Following fixation, α-tubulin was visualized by indirect immunofluorescence. Specifically, the cells were permeabilized in 0.2% (v/v) triton X-100/dPBS for 10 minutes. The cells were washed prior to transferring the coverslips to a humidified chamber, the coverslips were blocked for two hours in antibody buffer (2% (w/v) BSA/0.1% (v/v) Tween 20/dPBS). The coverslips were incubated with 50 μl of 0.1 μg/ml mouse α-tubulin (Molecular Probes) in antibody buffer for 1 hour before washing and incubation with 50 μl of 1 μg/ml goat anti-mouse FITC (Jackson ImmunoResearch Laboratories) for one hour in the dark. Finally, the cells were washed and treated with 2 μg/ml DAPI (Molecular Probes) for 10 minutes before rinsing in H2O and mounting with Vectashield (Vector Labs) mounting media. The cells were imaged using a 60× oil immersion objective on an upright microscope (Olympus BX51). The images were digitally captured using a CCD camera and Magnafire 2.0 software (Olympus). Post image processing was performed in Photoshop Elements 2.0 (Adobe) and in Microsoft Powerpoint.
Description for human hepatic P450s: In the recent his study, (±)-phenylahistin was treated with rat hepatic microsome or human hepatic P450s.

`C=CC(C)(C)c1[nH]cnc1/C=C1\NC(=O)[C@H](Cc2ccccc2)NC1=O` [(−)-Phenylahistin]: the “potency versus sensitive T. mentagrophytes isolate” value in data set [1] is given as “weaker but more comparable to the others”. Further, in the data set with Trichophyton rubrum, the “potency versus T. rubrum” value is listed as “significantly less potent than the other compounds”.

With `COc1ccc(/C=C\c2cc(OC)c(OC)c(OC)c2)cc1O` [CA4, Combretastatin A4], in data set [2] (setting [5]), the “% time spent Attenuation” value was determined as 39.50%, the “% time spent Growth” value is 35.31%, the “% time spent Shortening” value is recorded as 25.19% and the “Freq. of (min-1) Catastrophe” value amounted to 1.52 min⁻¹. Also, in data set [2] (setting [5]), the “Freq. of (min-1) Rescue” value was found to be 1.90 min⁻¹, the “Mean duration (min) Attenuation” value is given as 0.45 min, the “Mean duration (min) Growth” value is listed as 0.27 min and the “Mean duration (min) Shortening” value was found to be 0.21 min. Further, the “Mean rates (μm/min) Shortening” value in data set [2] (setting [5]) is given as 40.21 μm/min. Further, in data set [2] (Table 28, concentration effecting 25% of the maximal mitotic block in MCF7 cells), the “Mean rates (μm/min) Growth” value came out at 10.59 μm/min. In addition, in data set [2] (Table 28, dynamicity, 25% of the maximal mitotic block), the “Dyn. (μm/min)” value is reported as 13.87 μm/min. Besides, in data set [2] (setting [6]), the “% time spent Attenuation” value was 36.23%, the “% time spent Growth” value came out at 43.64%, the “% time spent Shortening” value was 20.13% and the “Dynamicity (μm/min)” value is 10.91 μm/min. For the same molecule, in [2] (setting [6]), the “Freq. of (min-1) Catastrophe” value is 1.09 min⁻¹, the “Freq. of (min-1) Rescue” value was determined as 2.79 min⁻¹, the “Mean duration (min) Attenuation” value is on record as 0.55 min and the “Mean duration (min) Growth” value amounted to 0.33 min. Moreover, in data set [2] (setting [6]), the “Mean duration (min) Shortening” value was found to be 0.22 min and the “Mean rates (μm/min) Shortening” value is 29.88 μm/min. For the same molecule, the “Mean rates (μm/min) Growth” value in data set [2] (Table 29, concentration effecting 50% of the maximal mitotic block in MCF7 cells) amounted to 11.21 μm/min. Further, the “effect on MT dynamic instability” value in data set [2] (concentrations effecting 25% or 50% of maximal mitotic block) is reported as “did not have a measurable effect on MT dynamic instability”.

As to `COc1cc2c(c(OC)c1OC)-c1ccc(OC)c(=O)cc1[C@@H](NC(C)=O)CC2` [Colchicine], the “microtubule depolymerization in HuVEC cells” value with HuVEC cells is on record as “induced microtubule depolymerization”.

For `COc1cc(/C=c2\[nH]c(=O)/c(=C/c3nc[nH]c3C(C)(C)C)[nH]c2=O)cc(OC)c1OC` [KPU-11, tBu-ΔPLH-3,4,5-triOMe], the “antifungal potency compared with griseofulvin” value with Trichophyton rubrum is given as “equivalent in potency or in some cases more potent than griseofulvin”. The “cytotoxic activity against HT-29 cells” value in the data set on HT-29 human colon cells was “also showed activity”.

With `COc1cc(/C=c2\[nH]c(=O)/c(=C/c3nc[nH]c3C(C)(C)C)[nH]c2=O)cc(OC)c1` [KPU-16, tBu-ΔPLH-3,5-diOMe], the “cytotoxic activity against HT-29 cells” value with HT-29 human colon cells was “showed high activity”.

`COc1ccc(/C=c2\[nH]c(=O)/c(=C/c3nc[nH]c3C(C)(C)C)[nH]c2=O)c(OC)c1OC` [KPU-17, tBu-ΔPLH-2,3,4-TriOMe]: the “antifungal potency compared with griseofulvin” value with Trichophyton rubrum was “equivalent in potency or in some cases more potent than griseofulvin”. The “cytotoxic activity against HT-29 cells” value in the data set on HT-29 human colon cells was “also showed activity”.

For `Cc1ccsc1/C=c1\[nH]c(=O)/c(=C/c2nc[nH]c2C(C)(C)C)[nH]c1=O` [KPU-29, tBu-ΔPLH-3-Me-2-thienyl], in the data set with HT-29 human colon cells, the “cytotoxic activity against HT-29 cells” value was “exhibited activity”.

`COc1cc(OC)c(/C=c2\[nH]c(=O)/c(=C/c3nc[nH]c3C(C)(C)C)[nH]c2=O)c(OC)c1` [KPU-45, tBu-ΔPLH-2,4,6-TriOMe]: in the data set with HT-29 human colon cells, the “cytotoxic activity against HT-29 cells” value is given as “also showed activity”.

In the case of `CC(C)(C)c1[nH]cnc1/C=c1\[nH]c(=O)/c(=C/c2cccc(OC(F)(F)F)c2)[nH]c1=O` [KPU-80, TBu- ΔPLH—m-OCF3], the “activity compared with tBu-dehydroPLH” value in the data set with HT-29 human colon cells is on record as “higher activity than tBu-dehydroPLH”.

Take `COc1ccc(F)c(/C=c2\[nH]c(=O)/c(=C/c3nc[nH]c3C(C)(C)C)[nH]c2=O)c1` [KPU-81, TBu-ΔPLH-2-F-5-OMe]: the “activity compared with tBu-dehydroPLH” value with HT-29 human colon cells is recorded as “higher activity than tBu-dehydroPLH”.

Take `CC(=O)O[C@H]1C(=O)[C@@]2(C)[C@H]([C@H](OC(=O)c3ccccc3)[C@]3(O)C[C@H](OC(=O)[C@H](O)[C@@H](NC(=O)c4ccccc4)c4ccccc4)C(C)=C1C3(C)C)[C@]1(OC(C)=O)CO[C@@H]1C[C@@H]2O` [Paclitaxel]: the “times less active against resistant MES-SA/Dx5 cells” value in data set [3] (versus MES-SA, Example 11) was ~400 times.

Turning to `C[C@@H]1[C@H](O)[C@@H](C)/C=C/C=C/C=C/C=C/C=C/C=C/C=C/[C@H](O[C@@H]2O[C@H](C)[C@@H](O)[C@H](N)[C@@H]2O)C[C@@H]2O[C@](O)(C[C@@H](O)C[C@@H](O)[C@H](O)CC[C@@H](O)C[C@@H](O)CC(=O)O[C@H]1C)C[C@H](O)[C@H]2C(=O)O` [amphotericin B, Amphotericin B], in the data set with Candida albicans, the “MFC C. albicans 10231” value came out at 0.5 µg/mL (≈ 0.541 µM), the “MFC C. albicans 90028” value worked out at 0.5 µg/mL (≈ 0.541 µM), the “MIC C. albicans 10231” value came to 0.5 µg/mL (≈ 0.541 µM) and the “MIC C. albicans 90028” value came out at 0.5 µg/mL (≈ 0.541 µM). In the data set with Candida glabrata, the “MFC C. glabrata” value is 1 µg/mL (≈ 1.08 µM) and the “MIC C. glabrata” value amounted to 1 µg/mL (≈ 1.08 µM).

With `CC(C)(C)c1[nH]cnc1/C=c1\[nH]c(=O)/c(=C/c2ccccc2)[nH]c1=O` [compound 2421], in the data set with HT-29 human colon cells (HT-29, read-out: EC50 (M) Mean, Table 3.1, cell line not given, assay as above), the EC50 turned out to be 2.22e-08 M. Also, the “% cytotox Mean” value with HT-29 human colon cells (Table 3.1, cell line not given) is given as 88%.

For `CC(C)(C)c1ocnc1/C=c1\[nH]c(=O)/c(=C/c2ccccc2F)[nH]c1=O` [compound 2475, tBu-Oxadelta-PLH-2-F], in the data set on HT-29 human colon cells (Table 3.2, HT-29 cells, 48 hours, read-out: EC50 (M) Mean), the EC50 amounted to 4.66e-08 M.

Turning to `COc1cccc2c1C(=O)c1c(O)c3c(c(O)c1C2=O)C[C@@](O)(C(=O)CO)C[C@@H]3O[C@H]1C[C@H](N)[C@H](O)[C@H](C)O1` [doxorubicin, Doxorubicin], the “reduced susceptibility of MES-SA/DX5 cell line” value in data set [3] (versus MES-SA) is reported as 34 fold.

As for `COc1cc([C@@H]2c3cc4c(cc3[C@@H](O[C@@H]3O[C@@H]5CO[C@@H](C)O[C@H]5[C@H](O)[C@H]3O)[C@H]3COC(=O)[C@H]23)OCO4)cc(OC)c1O` [etoposide, Etoposide], the “reduced susceptibility of MES-SA/DX5 cell line” value in data set [3] (versus MES-SA) is 60 fold.

As to `CC(C)(C)c1[nH]cnc1/C=C1\NC(=O)[C@H](Cc2ccccc2)NC1=O` [t-butyl-phenylahistin], the “potency in resistant MES-SA/DX5 versus sensitive MES-SA line” value in [3] is on record as “only slightly reduced”. The “effect on estimated tumor growth with taxotere” value in the data set on MCF-7 human breast tumor was “significant potentiation of taxotere”. Besides, the “antifungal potency compared with griseofulvin” value with Trichophyton rubrum is “equivalent in potency or in some cases more potent than griseofulvin”. Besides, the “microtubule depolymerization in HuVEC cells” value in the data set with HuVEC cells is “induced microtubule depolymerization”.

Regarding `CC(C)(C)c1[nH]cnc1/C=c1\[nH]c(=O)/c(=C/c2ccccc2)[nH]c1=O` [tBu-dehydrophenylahistin, 3-Z-Benzylidene-6-(5″-tert-butyl-1H-imidazol-4″-Z-ylmethylene)-piperazine-2,5-dione], the “cytotoxic activity in comparison with dehydrophenylahistin” value in the data set with HT-29 human colon cells (Table 1 data) is ~4 times.

(±)-phenylahistin: in the data set with human hepatic P450s, the “metabolites detected” value was “at least seven metabolites were detected”; the “share of major metabolites P1 and P3 in recovered metabolites” value is recorded as “more than 60%”.

phenylahistin [halimide]: the “DNA laddering, potency compared with KPU-2” value in data set [4] was “much less potent”.
